From ChEMBL document CHEMBL1201862, “PubChem BioAssay data set” (2004)
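Protocol summary: plate cells (96-well), add compound at 5 concentrations, incubate 48 h, interpolate endpoints linearly. Abbreviation: GI50, concentration required for 50% inhibition of growth.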 Activity calls are given as the source filed them. No stated cut-off is given here; in the data, active = GI50 up to about 1.1 µM and inactive = higher.

Columns and labels:
Experiment in all cases: growth of human tumour cells (NCI), 48 h
786-0 = system: 786-0
A498 = system: A498
A549 = system: A549
ACHN = system: ACHN
BT-549 = system: BT-549
CAKI-1 = system: CAKI-1
CCRF-CEM = system: CCRF-CEM
COLO 205 = system: COLO 205
DU-145 = system: DU-145
EKVX = system: EKVX
HCC 2998 = system: HCC 2998
HCT-116 = system: HCT-116
HCT-15 = system: HCT-15
HL-60 = system: HL-60
HOP-62 = system: HOP-62
HOP-92 = system: HOP-92
HT-29 = system: HT-29
Hs-578T = system: Hs-578T
IGROV-1 = system: IGROV-1
K562 = system: K562
KM12 = system: KM12
LOX IMVI = system: LOX IMVI
M14 = system: M14
MCF7 = system: MCF7
MDA-MB-231 = system: MDA-MB-231
MDA-MB-435 = system: MDA-MB-435
MDA-N = system: MDA-N
MOLT-4 = system: MOLT-4
Malme-3M = system: Malme-3M
NCI-H226 = system: NCI-H226
NCI-H23 = system: NCI-H23
NCI-H460 = system: NCI-H460
NCI-H522 = system: NCI-H522
NCI/ADR-RES = system: NCI/ADR-RES
OVCAR-3 = system: OVCAR-3
OVCAR-4 = system: OVCAR-4
OVCAR-5 = system: OVCAR-5
OVCAR-8 = system: OVCAR-8
PC-3 = system: PC-3
RPMI-8226 = system: RPMI-8226
RXF 393 = system: RXF 393
SF-268 = system: SF-268
SF-295 = system: SF-295
SF-539 = system: SF-539
SK-MEL-28 = system: SK-MEL-28
SK-MEL-2 = system: SK-MEL-2
SK-MEL-5 = system: SK-MEL-5
SK-OV-3 = system: SK-OV-3
SN12C = system: SN12C
SNB-19 = system: SNB-19
SR = system: SR
SW-620 = system: SW-620
T47D = system: T47D
TK-10 = system: TK-10
U-251 = system: U-251
UACC-257 = system: UACC-257
UACC-62 = system: UACC-62
UO-31 = system: UO-31

**Q.** With `C[C@H](CCC(=O)NN)[C@H]1CC[C@H]2[C@@H]3CC[C@@H]4C[C@H](O)CC[C@]4(C)[C@H]3CC[C@]12C` as the compound, how does the GI50 (786-0) read?
**A.** 36.4 µM (inactive)

**Q.** What about the GI50 (A498) of the same compound?
**A.** 79.3 µM (inactive)

**Q.** And the GI50 (A549)?
**A.** 54.1 µM (inactive)

**Q.** And the GI50 (ACHN)?
**A.** 54.8 µM (inactive)

**Q.** What about the GI50 (BT-549) of the same compound?
**A.** 57.8 µM (inactive)

**Q.** What about the GI50 (CAKI-1) of the same compound?
**A.** 46.3 µM (inactive)

**Q.** What about the GI50 (CCRF-CEM) of the same compound?
**A.** 12.3 µM (inactive)

**Q.** What about the GI50 (COLO 205) of the same compound?
**A.** 31.6 µM (inactive)

**Q.** What about the GI50 (DU-145) of the same compound?
**A.** > 50.8 µM (inactive)

**Q.** And the GI50 (EKVX)?
**A.** 43 µM (inactive)

**Q.** And the GI50 (HCC 2998)?
**A.** 41.4 µM (inactive)

**Q.** And the GI50 (HCT-116)?
**A.** 41 µM (inactive)

**Q.** What about the GI50 (HCT-15) of the same compound?
**A.** 39.7 µM

**Q.** And the GI50 (HL-60)?
**A.** 8.53 µM (inactive)

**Q.** And the GI50 (HOP-62)?
**A.** > 100 µM (inactive)

**Q.** What about the GI50 (HOP-92) of the same compound?
**A.** > 86.5 µM (inactive)

**Q.** What about the GI50 (HT-29) of the same compound?
**A.** 27.7 µM (inactive)

**Q.** What about the GI50 (Hs-578T) of the same compound?
**A.** > 100 µM (inactive)

**Q.** And the GI50 (IGROV-1)?
**A.** 83.4 µM (inactive)

**Q.** What about the GI50 (K562) of the same compound?
**A.** 14.7 µM (inactive)

**Q.** What about the GI50 (KM12) of the same compound?
**A.** 39.2 µM (inactive)

**Q.** What about the GI50 (LOX IMVI) of the same compound?
**A.** 31.6 µM (inactive)

**Q.** What about the GI50 (M14) of the same compound?
**A.** 25.4 µM (inactive)

**Q.** And the GI50 (MCF7)?
**A.** 31.7 µM (inactive)

**Q.** What about the GI50 (MDA-MB-231) of the same compound?
**A.** 40.8 µM (inactive)

**Q.** What about the GI50 (MDA-MB-435) of the same compound?
**A.** 44.2 µM (inactive)

**Q.** And the GI50 (MDA-N)?
**A.** 75.7 µM (inactive)

**Q.** What about the GI50 (MOLT-4) of the same compound?
**A.** 10.4 µM (inactive)

**Q.** And the GI50 (Malme-3M)?
**A.** 52.1 µM (inactive)

**Q.** What about the GI50 (NCI-H226) of the same compound?
**A.** > 74.6 µM (inactive)

**Q.** And the GI50 (NCI-H23)?
**A.** 41.2 µM (inactive)

**Q.** And the GI50 (NCI-H460)?
**A.** 52.1 µM (inactive)

**Q.** What about the GI50 (NCI-H522) of the same compound?
**A.** 29.2 µM (inactive)

**Q.** And the GI50 (NCI/ADR-RES)?
**A.** 64.1 µM (inactive)

**Q.** What about the GI50 (OVCAR-3) of the same compound?
**A.** 32 µM (inactive)

**Q.** And the GI50 (OVCAR-4)?
**A.** > 67.1 µM (inactive)

**Q.** And the GI50 (OVCAR-5)?
**A.** > 88.3 µM (inactive)

**Q.** What about the GI50 (OVCAR-8) of the same compound?
**A.** 37.2 µM (inactive)

**Q.** And the GI50 (PC-3)?
**A.** 44.8 µM (inactive)

**Q.** What about the GI50 (RPMI-8226) of the same compound?
**A.** 20.7 µM (inactive)

**Q.** What about the GI50 (RXF 393) of the same compound?
**A.** 21.4 µM (inactive)

**Q.** What about the GI50 (SF-268) of the same compound?
**A.** 65.3 µM (inactive)

**Q.** And the GI50 (SF-295)?
**A.** > 68.2 µM (inactive)

**Q.** What about the GI50 (SF-539) of the same compound?
**A.** 84.1 µM (inactive)

**Q.** What about the GI50 (SK-MEL-28) of the same compound?
**A.** > 74.8 µM (inactive)

**Q.** What about the GI50 (SK-MEL-2) of the same compound?
**A.** > 88.5 µM (inactive)

**Q.** What about the GI50 (SK-MEL-5) of the same compound?
**A.** 23.4 µM (inactive)

**Q.** What about the GI50 (SK-OV-3) of the same compound?
**A.** > 100 µM (inactive)

**Q.** And the GI50 (SN12C)?
**A.** 55.7 µM (inactive)

**Q.** And the GI50 (SNB-19)?
**A.** 97.3 µM (inactive)

**Q.** And the GI50 (SR)?
**A.** 18.6 µM (inactive)

**Q.** And the GI50 (SW-620)?
**A.** 71.8 µM (inactive)

**Q.** And the GI50 (T47D)?
**A.** 24.8 µM (inactive)

**Q.** What about the GI50 (TK-10) of the same compound?
**A.** 38.3 µM (inactive)

**Q.** What about the GI50 (U-251) of the same compound?
**A.** > 73.5 µM (inactive)

**Q.** What about the GI50 (UACC-257) of the same compound?
**A.** 61.7 µM (inactive)

**Q.** And the GI50 (UACC-62)?
**A.** > 100 µM (inactive)

**Q.** And the GI50 (UO-31)?
**A.** 51.9 µM (inactive)
